Results as given in US7026458B2, “High light fastness reactive red dyes” (DyStar Textilfarben GbmH & Co. Deutschland KG, priority 2003, dated 2006).

Assay: Solubility in 90 g/L salt solution at 50° C.
Type: physicochemical
Procedure: 9% w/v solutions of Dyestuff (Ia) and of Dyestuff (5) were prepared at 50° C. and salt added to produce a 90 g/L salt solution. After 30 mins, 4.2% of Dyestuff (Ia) remained in solution whilst only 2.8% of Dyestuff (5) remained in solution. Thus Dyestuff (Ia) is 50% more soluble in 90 g/L salt at 50° C. than Dyestuff (5). This factor can be crucial as dyeings are carried out at high salt concentrations and better salt solubility can avoid problems with unlevel exhaustion onto the fibre from an exhaust dyebath.

dyestuff remained in solution (9% w/v solution prepared at 50° C., salt added to give 90 g/L salt solution, after 30 mins): 4.2% | more soluble than Dyestuff (5) (in 90 g/L salt at 50° C., relative to Dyestuff (5)): 50%
SMILES: Cc1ccc(Nc2nc(Cl)nc(Nc3ccc(/N=N/c4c(N)c(S(=O)(=O)O)cc5cc(S(=O)(=O)O)cc(O)c45)c(S(=O)(=O)O)c3)n2)c(Nc2nc(Cl)nc(Nc3ccc(/N=N/c4c(N)c(S(=O)(=O)O)cc5cc(S(=O)(=O)O)cc(O)c45)c(S(=O)(=O)O)c3)n2)c1 [Dyestuff (Ia)]
